Measurements as given in US20190276798A1, “METHOD FOR PREPARING COLLAGEN HAVING REGENERATION AND REPAIR EFFECTS FROM WHARTON'S JELLY MESENCHYMAL STEM CELLS” (P.E. ASIA BIOMEDICINE CO., LTD., priority 2018, published 2019).

Experiments:
type III collagen = experiment: Collagen 3 expression in WJMSC cells, Western blotting; format: cell-based, human; conditions: for expression of pro-collagen 3: FIG. 3(B), ImageJ fold change vs control, normalized to β-actin
Description: (§1) Wharton's Jelly mesenchymal stein cells (WJMSC cells: BCRC H-WJ001) were cultured in α-MEM medium supplemented with 10% to 20% of fetal bovine serum (FBS) and 2 to 8 ng/mL of human basic fibroblast growth factor (bFGF). In the present invention, the WJMSC cells are incubated in α-MEM medium supplemented with 10% FBS and 4 ng/mL bFGF. In addition, the WJMSC cells are incubated in an incubator with a temperature of 37° C. and 5% carbon dioxide (CO2).
(§2) The WJMSC cells were seeded onto culture dishes at a cell density of 5×10^4 cells/cm^2, and incubated in a first medium of 10% FBS α-MEM medium supplemented with and 4 ng/mL bFGF for 24 hours. After 24 hours, the first medium was removed and the WJMSC cells were washed by 1× phosphate-buffered saline (PBS) for two to three times. The WJMSC cells were then incubated in a second medium for 48 hours. The second medium contains α-MEM medium supplemented with bFGF (ProSpece cat: cyt-218-b), proline (Calbiochem, cat: #5370), arginine (Merck, cat: #1011542) or L-ascorbic acid (Sigma, cat: SI-A8960) as experimental design. After 48 hours, the cells were collected for protein extraction, and expression of type I collagen (abbreviated to “collagen 1”) and type III collagen (abbreviated to “collagen 3”) was examined.
(§3) The cell medium was removed and the cells were washed by 1× PBS for two times. The cells were treated with 10 mM EDTA (ethylenediaminetetraacetic acid)-PBS solution or 0.5 M acetic acid and scraped down at 4° C. to obtain a first mixture. The first mixture was placed into a centrifuge tube for lysing cells by a sonication process. The sonication process comprises sonication at […] for 15 seconds by an ultrasonicator for three times, and the time interval between each sonication is 30 seconds. After the sonication process, the first mixture was centrifuged at 4° C. at a speed of 2000 rpm for 30 minutes to obtain a protein crud extract.
(§4) In addition, a cell lysis buffer can be used for cell protein extraction. The extraction method comprises the steps of removing cell medium, washing the cells by 1× PBS twice, adding RIPA cell lysis buffer containing 10 mM EDTA into the cells and shaking for at least 30 minutes, scraping down the cells to obtain a cells-lysis buffer mixture, placing the cells-lysis buffer mixture into a centrifuge tube, and centrifuging at 4° C. at a speed of 12000 rpm for at least 15 minutes to obtain a protein crud extract.
(§5) The protein crud extract was then mixed with 25% saturated […] solution, or mixed with 3M sodium chloride (NaCl) solution for reaction at 4° C. for 24 hours to perform a salting-out process. After 24 hours, the mixed solution was centrifuged at 4° C. at a speed of 3500 g for 30 minutes, and a supernatant was removed to preserve a sediment. The sediment was washed by 1× PBS, and centrifuged at 4° C. at a speed of 3500 g for 30 minutes. The sediment was preserved and dissolved by 0.5 M acetic acid solution to obtain a protein extract. The protein extract was then analyzed by Western blotting assay to detect expression of collagen. All the experiments were repeated at least twice and the results with representative are disclosed.
(§6) FIG. 3(A) is a diagram showing effects of L-ascorbic acid and proline on collagen expression in WJMSC cells. In FIG. 3(A), “AA(5)” represents that WJMSC cells were treated with 5 μM L-ascorbic acid, “Pro(2)” represents that WJMSC cells were treated with 2 mM proline, and “bFGF(4)” represents that the WJMSC cells were treated with 4 ng/mL bFGF. In addition, pro-collagen 1, collagen 1, pro-collage 3 and collagen 3 are marked by arrow signs in FIG. 3(A). […] Referring to FIG. 3(B), the results in FIG. 3(A) are quantified by ImageJ software, the quantification method comprises steps of acquiring a density value of a band of a target in Western blotting and normalizing the density value with a density value of β-actin of the same sample to obtain a normalization value. […]

type I collagen = experiment: Collagen 1 expression in WJMSC cells, Western blotting; format: cell-based, human; conditions: for expression of pro-collagen 1: FIG. 3(B), ImageJ fold change vs control, normalized to β-actin
Description: as §1, §2, §3, §4, §5, §6

[1] = tested on: Human foreskin fibroblasts (HS68); experiment: Wound healing of HS68 cells on collagen-coated culture dish; format: cell-based; conditions: for Wound size (%): dish coated with 50 μg/mL collagen; for Wound healing percentage (%): relative to wound size at 2 hours
Description: Human foreskin fibroblasts (HS68) were seed and attached onto a culture dish at a density of 2×10^4 cells/cm^2 and were incubated in 10% FBS DMEM medium for 24 hours. In control group, an ordinary culture dish without any treatment was used. In collagen group, a collagen-coated culture dish used is prepared by dropping appropriate amount of collagen extracted from WJMSC cells at a concentration of 50 μg/mL on a surface of the culture dish, spreading the collagen evenly, and placing the culture dish into a 37° C. incubator overnight to obtain the collagen-coated culture dish. After the HS68 cells were cultured for 24 hours, the culture medium of HS68 cells was removed and the cells were washed by 1× PBS. A wound was generated on the attached cells, and the wound was observed and photographed at 0, 2, 4, 6, and 20 hours after wound generation by a microscopy. The photographs were analyzed by ImageJ software. The region has no cell on it is considered as a wound size, and a wound healing percentage is calculated by the following formula:
Wound healing percentage (%)=[(wound size at observed time point−wound size at 2 hours after wound generation)/wound size at 2 hours after wound generation]×100%.

[2] = WJMSC cells treated with 5 μM L-ascorbic acid
[3] = WJMSC cells treated with 0.2 mM to 20 mM of arginine (FIG. 1)
[4] = WJMSC cells treated with arginine alone, 0.2 mM (FIG. 2)
[5] = WJMSC cells treated with 0.2 mM proline
[6] = WJMSC cells treated with 2 mM proline, vs control
[7] = WJMSC cells treated with 5 mM to 20 mM proline, same enhancement as with 2 mM
[8] = WJMSC cells treated with 4 ng/mL bFGF

**Q.** Which results are given for `O=C1O[C@H]([C@@H](O)CO)C(O)=C1O` [L-ascorbic acid]?
**A.** expression of pro-collagen 3 (type III collagen; 5 μM L-ascorbic acid): enhanced; expression of collagen 3 (type III collagen; [2]): enhanced; expression of pro-collagen 1 (type I collagen; 5 μM L-ascorbic acid): enhanced; expression of collagen 1 (type I collagen; [2]): enhanced

**Q.** What does the source list for `N=C(N)NCCC[C@H](N)C(=O)O` [arginine]?
**A.** expression of collagen 3 (type III collagen; [3]): not is enhanced; expression of collagen 3 (type III collagen; [4]): not enhanced; expression of collagen 1 (type I collagen; [3]): not is enhanced; expression of collagen 1 (type I collagen; [4]): not enhanced

**Q.** With `O=C(O)[C@@H]1CCCN1` [proline] as the molecule, how does the “expression of pro-collagen 3” value (type III collagen; 2 mM proline) read?
**A.** enhanced

**Q.** What about the “expression of collagen 3” value (type III collagen; [5]) of the same molecule?
**A.** enhanced

**Q.** And the “expression of collagen 3” value (type III collagen; [6])?
**A.** enhanced

**Q.** What about the “expression of collagen 3” value (type III collagen; [7]) of the same molecule?
**A.** not achieved

**Q.** And the “expression of pro-collagen 1” value (type I collagen; 2 mM proline)?
**A.** enhanced

**Q.** What about the “expression of collagen 1” value (type I collagen; [5]) of the same molecule?
**A.** enhanced

**Q.** What about the “expression of collagen 1” value (type I collagen; [6]) of the same molecule?
**A.** enhanced

**Q.** What about the “expression of collagen 1” value (type I collagen; [7]) of the same molecule?
**A.** not achieved

**Q.** Collagen was tested. Which “Wound size (%)” value ([1]; 2 hr after wound generation) did it give?
**A.** 15.2%

**Q.** And the “Wound healing percentage (%)” value ([1]; 4 hr after wound generation)?
**A.** 13.0%

**Q.** And the “Wound size (%)” value ([1]; 4 hr after wound generation)?
**A.** 13.3%

**Q.** What about the “Wound healing percentage (%)” value ([1]; 6 hr after wound generation) of the same molecule?
**A.** 38.0%

**Q.** And the “Wound healing percentage (%)” value ([1]; 6 hr after wound generation, listed as collagen)?
**A.** 38%

**Q.** What about the “Wound size (%)” value ([1]; 6 hr after wound generation) of the same molecule?
**A.** 9.4%

**Q.** And the “Wound healing percentage (%)” value ([1]; 20 hr after wound generation)?
**A.** 100.0%

**Q.** What about the “Wound healing percentage (%)” value ([1]; 20 hr after wound generation, listed as collagen) of the same molecule?
**A.** 100%

**Q.** And the “Wound size (%)” value ([1]; 20 hr after wound generation)?
**A.** 0.0%

**Q.** What about the cell density ([1]; 20 hr, 10× objective lens, vs control group (FIG. 6)) of the same molecule?
**A.** higher

**Q.** What about the “cells observed on the wound region” value ([1]; after 4 hours and 6 hours of wound generation, microscopy, vs control group (FIG. 6)) of the same molecule?
**A.** more significant

**Q.** And the “wound region covered by cells” value ([1]; after 20 hours of wound generation, microscopy (FIG. 6))?
**A.** all covered by cells

**Q.** What about the “wound healing percentage, collagen group compared with control group” value ([1]; over the observed time points) of the same molecule?
**A.** better

**Q.** “bFGF: human basic fibroblast growth factor (bFGF)” was tested. Which “expression of pro-collagen 3” value (type III collagen; 4 ng/mL bFGF) did it give?
**A.** enhanced

**Q.** And the “expression of collagen 3” value (type III collagen; [8])?
**A.** enhanced

**Q.** And the “expression of pro-collagen 1” value (type I collagen; 4 ng/mL bFGF)?
**A.** enhanced

**Q.** What about the “expression of collagen 1” value (type I collagen; [8]) of the same molecule?
**A.** enhanced
